US6852685B1, “Use of colostrinin, constituent peptides thereof, and analogs thereof to promote neuronal cell differentiation” (Board of Regents, The University of Texas System, priority 1999, dated 2005)
Entries after “also recorded” stand apart in the source; their conditions may differ.

System: medullary pheochromocytoma (PC12) cells
Test: Effect on morphology (differentiation) of PC12 cells
Format: cell-based
Details: for 1% FBS (cell differentiation) / 10% FBS (cell differentiation): six days after treatment; for Cell morphology: morphologies seen after treatment (list per substance, not tied to one concentration)
Procedure: Cells: PC12 cell line derived from medullary pheochromocytoma cells were used to undertake studies described bellow. PC 12 cells were obtained from the American Type Culture Collection and maintained in RPMI-1640 supplemented with 10% fetal bovine serum (HYCLONE Inc), penicillin (100 U/ml) and streptomycin (100 μg/ml).
Methods: To evaluate the effect of colostrum, colostrinin and its component peptides on cell differentiation 3×10^4 logarithmically replicating (70% confluence) PC12 cells were seeded in 24× well plates and cells were allowed to adhere and grow for 24 hours. Serum containing media were aspirated and replaced for serum-free RPMI containing appropriate amount of antibiotics. In four parallel, increasing concentrations (0.1, 1, 10 and 100 μg per ml) of colostrum, colostrinin and its component peptides were added directly into the media and incubated at 37° C. As a positive control, nerve growth factor (NGF) 7S (Gibco-BRL) was used at 100 ng per ml concentration (Chao, Cell, 69, 995-997 (1992); and Marshall et al., Cell 80, 179-185 (1995)). Phorbol 12-myristate 13-acetate (TPA: 10 ng per mil) was used as a negative control. Eight hours later the media were changed and RPMI-1640 was added containing 1% or 10% fetal bovine serum. The cultures were microscopically investigated 2nd, 4th and 6th days after treatment. Six days after treatment cells were fixed with paraformaldehyde (4%) and stained with 0.01% crystal violet solution. Excess of dyes were removed by ethanol washing. The final evaluation took place using a microscopy (Axiophot2 Zeiss Inc., Germany).

Compound | 1% FBS (cell differentiation) (0.1 μg/ml) | 1% FBS (cell differentiation) (1.0 μg/ml) | 1% FBS (cell differentiation) (10 μg/ml) | 1% FBS (cell differentiation) (100 μg/ml) | 10% FBS (cell differentiation) (0.1 μg/ml) | 10% FBS (cell differentiation) (10 μg/ml) | 10% FBS (cell differentiation) (100 μg/ml) | Cell morphology | 10% FBS (cell differentiation) (1.0 μg/ml)
DQPPDVEKPDLQPFQVQS [SEQ ID NO:3] | − (− = ≦0.01% (back-ground)) | − (− = ≦0.01% (back-ground)) | − (− = ≦0.01% (back-ground)) | − (− = ≦0.01% (back-ground)) | − (− = ≦0.01% (back-ground)) | + (+ = 1%) | + (+ = 1%) | fibroblast-like; also recorded: neuron-like | –
CCCCCCCCCCCCCC(=O)O[C@@H]1[C@@H](C)[C@@]2(O)[C@@H](C=C(CO)C[C@]3(O)C(=O)C(C)=C[C@@H]23)[C@@H]2C(C)(C)[C@]12OC(C)=O [TPA, Phorbol 12-myristate 13-acetate, reference compound] | – | – | – | – | – | – | – | rounded | –
VLEMKFPPPPQETVT [SEQ ID NO:7] | − (− = ≦0.01% (back-ground)) | − (− = ≦0.01% (back-ground)) | − (− = ≦0.01% (back-ground)) | − (− = ≦0.01% (back-ground)) | − (− = ≦0.01% (back-ground)) | + (+ = 1%) | – | fibroblast-like; also recorded: neuron-like | + (+ = 1%)
MQPPPLP [SEQ ID NO:1] | − (− = ≦0.01% (back-ground)) | − (− = ≦0.01% (back-ground)) | − (− = ≦0.01% (back-ground)) | − (− = ≦0.01% (back-ground)) | – | ++ (++ = 1-5%) | – | epitheloid; also recorded: neuron-like | + (+ = 1%)
VESYVPLFP [SEQ ID NO:31] | – | − (− = ≦0.01% (back-ground)) | − (− = ≦0.01% (back-ground)) | – | − (− = ≦0.01% (back-ground)) | – | – | fibroblast-like; also recorded: neuron-like | –
DLEMPVLPVEPFPFV [SEQ ID NO:5] | − (− = ≦0.01% (back-ground)) | − (− = ≦0.01% (back-ground)) | − (− = ≦0.01% (back-ground)) | − (− = ≦0.01% (back-ground)) | − (− = ≦0.01% (back-ground)) | – | + (+ = 1%) | fibroblast-like; also recorded: epitheloid; also recorded: neuron-like | − (− = ≦0.01% (back-ground))
LKPFPKLKVEVFPFP [SEQ ID NO:8] | − (− = ≦0.01% (back-ground)) | − (− = ≦0.01% (back-ground)) | − (− = ≦0.01% (back-ground)) | − (− = ≦0.01% (back-ground)) | − (− = ≦0.01% (back-ground)) | + (+ = 1%) | − (− = ≦0.01% (back-ground)) | fibroblast-like; also recorded: neuron-like | ++ (++ = 1-5%)
MPQNFYKLPQM [SEQ ID NO:6] | − (− = ≦0.01% (back-ground)) | − (− = ≦0.01% (back-ground)) | − (− = ≦0.01% (back-ground)) | − (− = ≦0.01% (back-ground)) | − (− = ≦0.01% (back-ground)) | + (+ = 1%) | + (+ = 1%) | fibroblast-like; also recorded: epitheloid | –
LFFFLPVVNVLP [SEQ ID NO:4] | − (− = ≦0.01% (back-ground)) | − (− = ≦0.01% (back-ground)) | − (− = ≦0.01% (back-ground)) | − (− = ≦0.01% (back-ground)) | − (− = ≦0.01% (back-ground)) | ++ (++ = 1-5%) | ++ (++ = 1-5%) | fibroblast-like; also recorded: epitheloid; also recorded: neuron-like | + (+ = 1%)
LQTPQPLLQVMMEPQGD [SEQ ID NO:2] | − (− = ≦0.01% (back-ground)) | − (− = ≦0.01% (back-ground)) | + (+ = 1%) | − (− = ≦0.01% (back-ground)) | – | ++ (++ = 1-5%) | + (+ = 1%) | fibroblast-like; also recorded: neuron-like | ++ (++ = 1-5%)
